Laboratory results taken from ChEMBL document CHEMBL1201862, “PubChem BioAssay data set” (2004).
Calls of active or inactive are those of the source.

Columns and labels:
[1] = biological target: T1, RNA-binding protein pos-1 (Caenorhabditis elegans, UniProt G5EF15); test: inhibitors of POS-1/mex-3 RNA binding, dose response, biochemical, fluorescence polarization (AID 1964);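 note: purified POS-1 fused to maltose binding protein made in E. coli; potency of compounds blocking POS-1 binding to fluorescent RNA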
T1 sequence (G5EF15 whole entry): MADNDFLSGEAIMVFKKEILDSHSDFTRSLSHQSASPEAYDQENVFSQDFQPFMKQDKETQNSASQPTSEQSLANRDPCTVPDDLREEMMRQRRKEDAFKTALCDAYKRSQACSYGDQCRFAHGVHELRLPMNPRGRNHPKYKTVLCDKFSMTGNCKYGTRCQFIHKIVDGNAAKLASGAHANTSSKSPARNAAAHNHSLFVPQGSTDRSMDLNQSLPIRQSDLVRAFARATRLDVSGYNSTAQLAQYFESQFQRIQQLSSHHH

[2] = biological target: T2, Zinc finger protein mex-5 (Caenorhabditis elegans, UniProt Q9XUB2); test: MEX-5/TCR-2 RNA interaction inhibitors, dose response, biochemical, C. elegans, fluorescence polarization (AID 1960)
T2 sequence (Q9XUB2 whole entry): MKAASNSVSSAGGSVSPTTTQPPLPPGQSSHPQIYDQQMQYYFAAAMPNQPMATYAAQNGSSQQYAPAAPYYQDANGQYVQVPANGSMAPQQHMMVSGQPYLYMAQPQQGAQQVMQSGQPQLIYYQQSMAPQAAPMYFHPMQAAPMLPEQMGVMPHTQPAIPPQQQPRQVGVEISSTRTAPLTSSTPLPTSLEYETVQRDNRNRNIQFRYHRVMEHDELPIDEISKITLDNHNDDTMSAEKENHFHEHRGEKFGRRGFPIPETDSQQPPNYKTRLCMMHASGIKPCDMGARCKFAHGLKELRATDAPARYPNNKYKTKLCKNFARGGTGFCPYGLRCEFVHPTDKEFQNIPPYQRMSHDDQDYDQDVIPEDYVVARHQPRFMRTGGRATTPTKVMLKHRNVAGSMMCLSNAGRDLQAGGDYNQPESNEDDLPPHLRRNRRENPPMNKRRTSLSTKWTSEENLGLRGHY

[3] = biological target: T3, Sentrin-specific protease 8 (Homo sapiens, UniProt Q96LD8); assay type: functional;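 note: kinetic enzyme assay of SENP8 cleaving a Nedd8 protein substrate, dose-response confirmation of screening hits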
T3 sequence (Q96LD8 whole entry): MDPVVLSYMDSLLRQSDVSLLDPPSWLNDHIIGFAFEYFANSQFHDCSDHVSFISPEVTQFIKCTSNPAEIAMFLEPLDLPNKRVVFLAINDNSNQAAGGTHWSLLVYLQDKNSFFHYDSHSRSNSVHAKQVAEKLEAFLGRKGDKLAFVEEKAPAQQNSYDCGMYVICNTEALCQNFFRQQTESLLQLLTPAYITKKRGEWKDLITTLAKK

cells = assay type: functional, cell-based
[4] = biological target: 72 kDa type IV collagenase (Homo sapiens, UniProt P08253); test: Dose Response validation of uHTS RPN11 inhibitor hits using a MMP-2 Fluorescence assay.; assay type: functional
Chain of 72 kDa type IV collagenase (P08253 whole entry): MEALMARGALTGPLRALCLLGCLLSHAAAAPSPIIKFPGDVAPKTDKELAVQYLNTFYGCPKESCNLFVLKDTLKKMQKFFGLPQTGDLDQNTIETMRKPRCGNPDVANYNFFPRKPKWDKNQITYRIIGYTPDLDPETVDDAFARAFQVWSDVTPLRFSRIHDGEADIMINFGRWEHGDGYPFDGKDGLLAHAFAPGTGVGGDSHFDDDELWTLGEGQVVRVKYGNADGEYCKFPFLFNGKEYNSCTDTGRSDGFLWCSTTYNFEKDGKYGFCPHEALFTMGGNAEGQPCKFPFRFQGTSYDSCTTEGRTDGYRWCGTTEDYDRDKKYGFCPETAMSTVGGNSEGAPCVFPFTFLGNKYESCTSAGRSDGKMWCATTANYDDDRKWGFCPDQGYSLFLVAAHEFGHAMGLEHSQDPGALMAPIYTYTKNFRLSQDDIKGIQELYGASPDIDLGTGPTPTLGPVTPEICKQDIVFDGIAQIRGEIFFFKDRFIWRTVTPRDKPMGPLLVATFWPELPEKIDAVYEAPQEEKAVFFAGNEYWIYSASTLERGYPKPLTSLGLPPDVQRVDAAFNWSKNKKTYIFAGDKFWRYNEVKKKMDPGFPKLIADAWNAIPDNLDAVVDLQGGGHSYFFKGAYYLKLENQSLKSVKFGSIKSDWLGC

[5] = biological target: Serine/threonine-protein kinase Nek2 (Homo sapiens, UniProt P51955); assay type: functional
Chain of Serine/threonine-protein kinase Nek2 (P51955 whole entry): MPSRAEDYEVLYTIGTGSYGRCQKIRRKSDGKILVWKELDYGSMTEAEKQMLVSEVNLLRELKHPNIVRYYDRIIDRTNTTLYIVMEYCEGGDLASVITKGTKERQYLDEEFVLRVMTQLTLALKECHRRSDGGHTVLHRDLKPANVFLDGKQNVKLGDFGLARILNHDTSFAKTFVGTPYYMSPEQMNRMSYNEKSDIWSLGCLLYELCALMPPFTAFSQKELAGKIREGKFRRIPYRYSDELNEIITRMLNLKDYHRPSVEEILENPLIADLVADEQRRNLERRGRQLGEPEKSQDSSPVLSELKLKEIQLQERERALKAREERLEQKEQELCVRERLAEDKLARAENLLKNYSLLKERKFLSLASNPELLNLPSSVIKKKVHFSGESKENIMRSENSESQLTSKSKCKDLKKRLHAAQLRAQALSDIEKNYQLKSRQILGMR

[6] = biological target: Mitogen-activated protein kinase 14 (Homo sapiens, UniProt Q16539); assay type: functional;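 note: part of a kinome-wide panel, MAPK14 entry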
Chain of Mitogen-activated protein kinase 14 (Q16539 whole entry): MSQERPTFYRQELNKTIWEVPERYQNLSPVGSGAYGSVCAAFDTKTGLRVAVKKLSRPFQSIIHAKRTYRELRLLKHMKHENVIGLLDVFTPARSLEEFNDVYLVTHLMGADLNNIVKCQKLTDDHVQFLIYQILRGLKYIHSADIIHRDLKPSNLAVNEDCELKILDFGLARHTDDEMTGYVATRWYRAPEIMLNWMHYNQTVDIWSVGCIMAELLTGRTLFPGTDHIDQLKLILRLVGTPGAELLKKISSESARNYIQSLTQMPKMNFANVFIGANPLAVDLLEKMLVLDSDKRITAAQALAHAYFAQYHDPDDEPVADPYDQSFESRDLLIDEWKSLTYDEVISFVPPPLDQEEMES

[7] = biological target: Cyclin-dependent kinase 2 (Homo sapiens, UniProt P24941); assay type: functional;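 note: CDK2 measured as one member of a broad kinome profiling panel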
[8] = biological target: Serine/threonine-protein kinase N2 (Homo sapiens, UniProt Q16513); assay type: functional
Chain of Serine/threonine-protein kinase N2 (Q16513 whole entry): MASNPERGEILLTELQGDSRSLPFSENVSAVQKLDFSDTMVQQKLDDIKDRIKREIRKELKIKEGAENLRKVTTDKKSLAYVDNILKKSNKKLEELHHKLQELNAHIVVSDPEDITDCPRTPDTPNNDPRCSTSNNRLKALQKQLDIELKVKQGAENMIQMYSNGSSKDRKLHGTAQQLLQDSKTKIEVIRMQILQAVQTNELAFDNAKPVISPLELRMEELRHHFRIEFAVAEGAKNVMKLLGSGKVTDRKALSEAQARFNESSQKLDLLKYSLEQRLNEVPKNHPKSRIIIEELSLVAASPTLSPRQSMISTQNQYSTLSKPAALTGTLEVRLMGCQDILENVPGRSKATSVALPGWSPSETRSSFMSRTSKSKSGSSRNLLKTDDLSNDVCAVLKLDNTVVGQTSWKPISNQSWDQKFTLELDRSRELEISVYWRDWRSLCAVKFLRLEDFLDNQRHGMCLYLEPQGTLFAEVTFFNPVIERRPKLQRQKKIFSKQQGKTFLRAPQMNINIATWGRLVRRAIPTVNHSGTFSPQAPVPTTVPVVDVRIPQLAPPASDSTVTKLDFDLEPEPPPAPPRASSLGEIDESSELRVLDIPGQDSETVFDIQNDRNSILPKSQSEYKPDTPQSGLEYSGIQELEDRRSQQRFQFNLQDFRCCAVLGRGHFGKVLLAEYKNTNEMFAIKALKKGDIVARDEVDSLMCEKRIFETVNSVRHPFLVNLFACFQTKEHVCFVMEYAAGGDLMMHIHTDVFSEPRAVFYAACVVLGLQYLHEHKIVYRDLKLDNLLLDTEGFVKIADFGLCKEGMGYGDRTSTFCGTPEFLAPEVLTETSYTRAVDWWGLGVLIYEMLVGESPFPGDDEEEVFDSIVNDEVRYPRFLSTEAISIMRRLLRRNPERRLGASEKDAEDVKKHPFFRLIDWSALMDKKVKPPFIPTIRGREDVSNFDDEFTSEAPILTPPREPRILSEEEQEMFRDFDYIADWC

[9] = Luminescence Cell-Based Dose Response HTS to Identify Inhibitors of 5'UTR Stem-Loop Driven Prion Protein mRNA Translation in H4 Neuroglioblastoma Cells. [Related pubchem assays: 1827 (Project Summary), 1813 (Primary HTS)]; assay type: functional
[10] = inhibitors of intracellular T. cruzi replication, confirmation, NIH3T3 host cells, beta-gal luminescence (AID 2044); assay type: functional, cell-based;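 note: intracellular parasites grown in NIH/3T3 mouse fibroblasts as host cells; luminescent beta-galactosidase reporter signal from transgenic T. cruzi replicating inside host cells; inhibitors lower the luminescence signal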
[11] = biological target: T4, Serine/threonine-protein phosphatase (Candida dubliniensis (strain CD36 / CBS 7987 / NCPF 3949 / NRRLY-17841) (Yeast), UniProt B9W6M3); test: calcineurin pathway inhibitors in yeast reporter, dose response, S. cerevisiae, CDRE-lacZ, luminescence, secondary (AID 2388); assay type: functional, cell-based;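 note: yeast reporter cells carrying a calcineurin-responsive lacZ construct stimulated with calcium chloride; luminescent beta-galactosidase reporter signal in whole cells rather than isolated phosphatase activity; potency for inhibition where a drop in reporter signal means calcineurin blockade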
T4 sequence (B9W6M3 whole entry): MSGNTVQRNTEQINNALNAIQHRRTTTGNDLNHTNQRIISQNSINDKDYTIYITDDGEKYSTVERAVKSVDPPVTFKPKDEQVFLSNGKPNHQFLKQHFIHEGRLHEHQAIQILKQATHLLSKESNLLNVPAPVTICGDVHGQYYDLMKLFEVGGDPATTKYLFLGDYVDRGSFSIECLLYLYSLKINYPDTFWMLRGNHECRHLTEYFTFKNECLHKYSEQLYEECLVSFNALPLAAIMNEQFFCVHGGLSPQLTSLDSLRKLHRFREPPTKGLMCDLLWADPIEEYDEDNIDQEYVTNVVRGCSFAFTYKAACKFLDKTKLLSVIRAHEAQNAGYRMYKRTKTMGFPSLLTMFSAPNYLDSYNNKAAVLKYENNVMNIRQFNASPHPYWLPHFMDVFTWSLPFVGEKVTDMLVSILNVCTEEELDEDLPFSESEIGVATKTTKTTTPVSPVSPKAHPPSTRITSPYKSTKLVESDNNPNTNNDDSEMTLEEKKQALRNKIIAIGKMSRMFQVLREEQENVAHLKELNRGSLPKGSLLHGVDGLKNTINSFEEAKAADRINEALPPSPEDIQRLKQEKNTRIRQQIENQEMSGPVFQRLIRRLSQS

[12] = HeLa cell cytotoxicity, dose response, cytotoxicity control for MgcRacGAP inhibitor project (AID 624300); assay type: functional
[13] = inhibitors of clade B AD8 Env fusion, dose response, cell-based, cherry-pick (AID 652062); assay type: functional;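 note: luciferase signal from cell-cell fusion driven by HIV-1 clade B AD8 Env; potency is for inhibitors of fusion seen as a drop in luminescence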

## Nc1nnc2c(n1)CCCC2
[1]
  EC50: 104 µM (active)
[2]
  EC50: 59.3 µM (active)
[3]
  IC50: 2.98 µM (active)

## O=C(N/N=C/c1c(O)ccc2ccccc12)c1[nH]ncc1Br
cells
  EC50: 7.76 µM (active)
[4]
  IC50: > 100 µM (inactive)

## Nc1c(-c2ccc(NC(=O)Nc3cccc(C(F)(F)F)c3)cc2)cnc2c(-c3ccc4c(c3)OCO4)cnn12
[5]
  Ki: 1.26 µM (active)
[6]
  Ki: > 3.98 µM (inactive)

## O=C(Nc1cc(-c2c[nH]c3ncccc23)cc(Cl)n1)c1ccccc1
[7]
  Ki: > 3.16 µM (inactive)
[8]
  Ki: > 5.01 µM (inactive)

## CCN1C(=Cc2sc3ccccc3[n+]2C)C=Cc2cccc(C)c21
[9]
  EC50: 6.43 µM (active)
[10]
  EC50: < 0.1 µM (active)
[11]
  EC50: > 180 µM (inactive)
[12]
  CC50: 13.8 µM (active)
[13]
  AC50: 1.05 µM (active)
